This note sets out measurements from patent US11505548B2, “Heterocyclic compounds and their use for treatment of helminthic infections and diseases” (Celgene Corporation, priority 2019, dated 2022).

The subject of the assay is Onchocerca gutturosa Adult Male Worms. Put plainly: Onchocerciasis in vitro screening model, worm motility score. The assay is classed as cell-based. The settings on record: read-out: O. gutturosa activity level (IC50 or MED).
Where [1] appears, read: Onchocerca gutturosa, Table 1 O. gutturosa, levels A/B/C, motility or MTT readout not specified.
The mark [2] stands for this setting: in vitro, Onchocerca gutturosa adult male worms, class A/B/C.

The term IC50 denotes the concentration at which inhibition is half-maximal.

Read-outs that look alike come from different tables or passages of the source.

Turning to `Cc1cccnc1Nc1nc(-c2cc(C(=O)N(C)C)ccn2)ns1` [Compound 22, N,N-dimethyl-2-(5-(3-methylpyridin-2-ylamino)-1,2,4-thiadiazol-3-yl)isonicotinamide], the half-inhibitory concentration (IC50) under setting [1] is 500 to 5000 nM.
Same read-out and setting: to `COc1cccnc1Nc1nc(-c2ccc(OC3CC3)cn2)ns1` [Compound 80, 3-(5-cycloprop-oxypyridin-2-yl)-N-(3-methoxypyridin-2-yl)-1,2,4-thiadiazol-5-amine] belongs 200 to 500 nM; to `COc1ccnc(-c2nsc(Nc3cc(C(F)(F)F)c(C(C)C)cn3)n2)c1` [Compound 182, N-(5-iso-propyl-4-(trifluoro-methyl)pyridin-2-yl)-3-(4-methoxy-pyridin-2-yl)-1,2,4-thiadiazol-5-amine], 200 to 500 nM.
For `c1ccc(-c2ccnc(Nc3nnc(-c4ccccn4)s3)c2)cc1` [Compound 240, N-(4-pheny-lpyridin-2-yl)-5-(pyridin-2-yl)-1,3,4-thiadiazol-2-amine], under setting [2], the half-maximal inhibitory concentration (IC50) was in the range of 500 to 5000 nM.
With `Cc1cccnc1-c1nnc(Nc2ccccn2)o1` [Compound 32, 5-(3-methyl-pyridin-2-yl)-N-(pyridin-2-yl)-1,3,4-oxadiazol-2-amine], the IC50 under setting [1] was 500 to 5000 nM.
Same read-out and setting: to `Cc1cccnc1Nc1nc(-c2cc(OC3CC3)c(C(F)(F)F)cn2)ns1` [Compound 151, 3-(4-cyclo-propoxy-5-(trifluoromethyl)pyridin-2-yl)-N-(3-methylpyridin-2-yl)-1,2,4-thiadiazol-5-amine] belongs below 200 nM; to `FC(F)(F)c1ccc(Nc2nc(-c3ccccn3)ns2)nc1` [Cmpd 1], below 200 nM.
Regarding `CC(=O)N1CCC(Oc2ccc(-c3nsc(Nc4ncccc4C)n3)nc2)CC1` [Compound 266, 1-(4-(6-(5-(3-methyl-pyridin-2-ylamino)-1,2,4-thiadiazol-3-yl)pyridin-3-yloxy)piperidin-1-yl)ethanone], the IC50 under setting [2] lay within 500 to 5000 nM.
In the case of `Cc1cccnc1Nc1nc(-c2ccc(OC3CC3)cn2)ns1` [Compound 38, 3-(5-cyclo-propoxypyridin-2-yl)-N-(3-methyl-pyridin-2-yl)-1,2,4-thiadiazol-5-amine], the 50% inhibitory concentration (IC50) under setting [1] was below 200 nM.
On the same count and under the same terms, the same measure for `COc1ccnc(-c2nsc(Nc3ccc(C(C)C)cn3)n2)c1` [Compound 177, N-(5-isopropyl-pyridin-2-yl)-3-(4-methoxy-pyridin-2-yl)-1,2,4-thiadiazol-5-amine]: below 200 nM.
Turning to `COc1cnc(Nc2nc(-c3cc(C(=O)N(C)C)c(OC(C)C)cn3)ns2)c(C(F)(F)F)c1` [Compound 264, 5-isopropoxy-2-(5-(5-methoxy-3-(trifluoro-methyl)pyridin-2-ylamino)-1,2,4-thiadiazol-3-yl)-N,N-dimethyliso-nicotinamide], under setting [2], the IC50 is 500 to 5000 nM.
Still for that read-out and setting: to `CC(C)Oc1ccc(-c2nsc(Nc3ncc(C(F)(F)F)cc3S(=O)(=O)N(C)C)n2)nc1` [Compound 286, 2-(3-(5-isopropoxy-pyridin-2-yl)-1,2,4-thiadiazol-5-ylamino)-N,N-dimethyl-5-(trifluoromethyl) pyridine-3-sulfonamide] belongs 500 to 5000 nM; to `CC(=O)N(C)c1cc(C(F)(F)F)cnc1Nc1nc(-c2cc3c(cn2)OC(C)(C)C3)ns1` [Compound 272, N-(2-(3-(2,2-dimethyl-2,3-dihydrofuro [2,3-c]pyridin-5-yl)-1,2,4-thiadiazol-5-ylamino)-5-(trifluoromethyl)pyridin-3-yl)-N-methylacetamide], 200 to 500 nM.
Same read-out and setting: to `CC(=O)N(C)c1cc(C(F)(F)F)cnc1Nc1nc(-c2cc(C(F)(F)F)c(OC(C)C)cn2)ns1` [Compound 268, N-(2-(3-(5-isopropoxy-4-(trifluoromethyl)pyridin-2-yl)-1,2,4-thiadiazol-5-ylamino)-5-(trifluoromethyl)pyridin-3-yl)-N-methylacetamide] belongs 500 to 5000 nM.
The same measure, in the same setting: the same measure for `CC(=O)N(C)c1cccnc1Nc1nc(-c2ccc(OC(C)C)cn2)no1` [Compound 222, N-(2-(3-(5-isopropoxy-pyridin-2-yl)-1,2,4-oxadiazol-5-ylamino)pyridin-3-yl)-N-methyl-acetamide]: 500 to 5000 nM.
For `COc1ccc(-c2nsc(Nc3ccc(C4CCN(C)CC4)cn3)n2)nc1` [Compound 50, 3-(5-methoxy-pyridin-2-yl)-N-(5-(1-methyl-piperidin-4-yl)pyridin-2-yl)-1,2,4-thiadiazol-5-amine], the IC50 under setting [1] fell in the range of 500 to 5000 nM.
On the same count and under the same terms, to `Cc1cccnc1-c1nnc(Nc2ccccn2)[nH]1` [Compound 41, N-(5-(3-methyl-pyridin-2-yl)-4H-1,2,4-triazol-3-yl)pyridin-2-amine] belongs below 200 nM.
With `COc1ccc(Nc2nnc(-c3cc(OC4CCCCC4)ccn3)o2)nc1` [Compound 214, 5-(4-(cyclohexy-loxy)pyridin-2-yl)-N-(5-methoxypyridin-2-yl)-1,3,4-oxadiazol-2-amine], under setting [2], the IC50 was below 200 nM.
Consider `CC(C)c1cnc(Nc2nc(-c3cc(OC4CC4)ccn3)ns2)cc1C(F)(F)F` [Compound 96, 3-(4-cycloprop-oxypyridin-2-yl)-N-(5-isopropyl-4-(trifluoromethyl)pyridin-2-yl)-1,2,4-thiadiazol-5-amine], for which the IC50 under setting [1] is below 200 nM.
For the compound `CC(=O)N1CCc2cc(-c3nsc(Nc4ncccc4C(F)(F)F)n3)ncc21` [Compound 267, 1-(5-(5-(3-(trifluoromethyl)pyridin-2-ylamino)-1,2,4-thiadiazol-3-yl)-2,3-dihydro-1H-pyrrolo[2,3-c]pyridin-1-yl)ethanone], the IC50 under setting [2] is 500 to 5000 nM.
Regarding `CC(C)Oc1ccc(-c2nsc(Nc3ncccc3C(=O)N(C)C)n2)nc1` [Compound 188, 2-(3-(5-isoprop-oxypyridin-2-yl)-1,2,4-thiadiazol-5-ylamino)-N,N-dimethyl nicotinamide], under setting [1], the IC50 was 200 to 500 nM.
For the compound `CC(=O)N(C)c1cc(C(F)(F)F)cnc1Nc1nc(-c2cc3c(cn2)N(C)C(C)(C)C3)ns1` [Compound 291, N-methyl-N-(5-(trifluoromethyl)-2-(3-(1,2,2-trimethyl-2,3-dihydro-1H-pyrrolo[2,3-c]pyridin-5-yl)-1,2,4-thiadiazol-5-ylamino)pyridin-3-yl)acetamide], the half-maximal inhibitory concentration (IC50) under setting [2] is below 200 nM.
On to `COc1ccc(Nc2nc(-c3cc(OC4CCCCC4)ccn3)ns2)nc1` [Compound 183, 3-(4-(cyclo-hexyloxy)pyridin-2-yl)-N-(5-methoxypyridin-2-yl)-1,2,4-thiadiazol-5-amine], for which the half-inhibitory concentration (IC50) under setting [1] fell in the range of 200 to 500 nM.
`CC(C)Oc1cnc(-c2nsc(Nc3ncccc3C(F)(F)F)n2)cc1C(=O)N(C)C` [Compound 218, 5-isopropoxy-N,N-dimethyl-2-(5-(3-(trifluoromethyl)pyridin-2-ylamino)-1,2,4-thiadiazol-3-yl)isonico-tinamide]: under setting [2], the IC50 is 500 to 5000 nM.
With `CC(=O)N(C)c1cc(C(F)(F)F)cnc1Nc1nc(-c2cc3c(cn2)N(C(C)C)CC3)ns1` [Compound 273, N-(2-(3-(1-isopropyl-2,3-dihydro-1H-pyrrolo[2,3-c]pyridin-5-yl)-1,2,4-thiadiazol-5-ylamino)-5-(trifluoromethyl)pyridin-3-yl)-N-methylacetamide], the IC50 under setting [2] is 200 to 500 nM.
Regarding `COc1cccnc1Nc1nc(-c2ccc(OC3CC(F)(F)C3)cn2)ns1` [Compound 137, 3-(5-(3,3-difluorocyclo-butoxy)pyridin-2-yl)-N-(3-methoxypyridin-2-yl)-1,2,4-thiadiazol-5-amine], the IC50 under setting [1] is 500 to 5000 nM.
As for `COc1cc(C(C)C)cnc1Nc1nc(-c2ccc(OC(C)C)cn2)ns1` [Compound 166, 3-(5-isopropoxy-pyridin-2-yl)-N-(5-isopropyl-3-methoxypyridin-2-yl)-1,2,4-thiadiazol-5-amine], under setting [1], the half-maximal inhibitory concentration (IC50) is below 200 nM.
As to `CN(C)C(=O)c1cc(C(F)(F)F)cnc1Nc1nc(-c2cc3c(cn2)N(C)C(=O)C3(C)C)ns1` [Compound 292, N,N-dimethyl-5-(trifluoromethyl)-2-(3-(1,3,3-trimethyl-2-oxo-2,3-dihydro-1H-pyrrolo[2,3-c]pyridin-5-yl)-1,2,4-thiadiazol-5-ylamino) nicotinamide], the concentration for half-maximal inhibition (IC50) under setting [2] was 500 to 5000 nM.
In the case of `COc1cnc(-c2nsc(Nc3ncccc3C)n2)cn1` [Compound 125, 3-(5-methoxy-pyrazin-2-yl)-N-(3-methyl-pyridin-2-yl)-1,2,4-thiadiazol-5-amine], the IC50 under setting [1] is 500 to 5000 nM.
For `CC(C)Oc1cnc(-c2nsc(Nc3ncccc3C(C)C)n2)cc1C(N)=O` [Compound 198, 5-isopropoxy-2-(5-(3-isopropylpyridin-2-ylamino)-1,2,4-thiadiazol-3-yl)isonicotin-amide], under setting [2], the IC50 is 500 to 5000 nM.
For the compound `CC(C)Oc1ccc(-c2n[nH]c(Nc3ncccc3N(C)C)n2)nc1` [Compound 140, N2-(3-(5-isoprop-oxypyridin-2-yl)-1H-1,2,4-triazol-5-yl)-N3,N3-dimethyl-pyridine-2,3-diamine], under setting [1], the IC50 is 500 to 5000 nM.
Still for that read-out and setting: to `Cc1cccnc1Nc1nnc(-c2ccc(OC3CCN(C)CC3)cn2)s1` [Compound 63, 5-(5-(1-methyl-piperidin-4-yloxy)pyridin-2-yl)-N-(3-methylpyridin-2-yl)-1,3,4-thiadiazol-2-amine] belongs 500 to 5000 nM; to `CN(C)c1cccnc1Nc1nc(-c2ccc(F)cn2)ns1` [Compound 121, N2-(3-(5-fluoro-pyridin-2-yl)-1,2,4-thiadiazol-5-yl)-N3,N3-dimethylpyridine-2,3-diamine], below 200 nM.
As to `CC(=O)N(C)c1cccnc1Nc1nc(-c2cc(C)ccn2)ns1` [Compound 208, N-methyl-N-(2-(3-(4-methylpyridin-2-yl)-1,2,4-thiadiazol-5-ylamino)pyridin-3-yl)acetamide], under setting [2], the concentration for half-maximal inhibition (IC50) is 500 to 5000 nM.
Regarding `CN(C)c1cccnc1Nc1nc(-c2ccc(OC3CC(F)(F)C3)cn2)ns1` [Compound 136, N2-(3-(5-(3,3-difluorocyclo-butoxy)pyridin-2-yl)-1,2,4-thiadiazol-5-yl)-N3,N3-dimethyl-pyridine-2,3-diamine], the IC50 under setting [1] was in the range of 500 to 5000 nM.
Turning to `CC(C)c1cnc(Nc2nc(-c3cc4c(cn3)N(C)CC4)ns2)cc1C(F)(F)F` [Compound 322, N-(5-isopropyl-4-(trifluoromethyl)pyridin-2-yl)-3-(1-methyl-2,3-dihydro-1H-pyrrolo[2,3-c]pyridin-5-yl)-1,2,4-thiadiazol-5-amine], the IC50 under setting [2] was below 200 nM.
